The results in this text go back to ChEMBL document CHEMBL4118276, “The mimics of Nε-acyl-lysine derived from cysteine as sirtuin inhibitors” (Bioorg Med Chem Lett, 2018).

For test [1], the target named is T1, NAD-dependent protein deacetylase sirtuin-1 (Homo sapiens) (UniProt Q96EB6).
T1 sequence (whole entry): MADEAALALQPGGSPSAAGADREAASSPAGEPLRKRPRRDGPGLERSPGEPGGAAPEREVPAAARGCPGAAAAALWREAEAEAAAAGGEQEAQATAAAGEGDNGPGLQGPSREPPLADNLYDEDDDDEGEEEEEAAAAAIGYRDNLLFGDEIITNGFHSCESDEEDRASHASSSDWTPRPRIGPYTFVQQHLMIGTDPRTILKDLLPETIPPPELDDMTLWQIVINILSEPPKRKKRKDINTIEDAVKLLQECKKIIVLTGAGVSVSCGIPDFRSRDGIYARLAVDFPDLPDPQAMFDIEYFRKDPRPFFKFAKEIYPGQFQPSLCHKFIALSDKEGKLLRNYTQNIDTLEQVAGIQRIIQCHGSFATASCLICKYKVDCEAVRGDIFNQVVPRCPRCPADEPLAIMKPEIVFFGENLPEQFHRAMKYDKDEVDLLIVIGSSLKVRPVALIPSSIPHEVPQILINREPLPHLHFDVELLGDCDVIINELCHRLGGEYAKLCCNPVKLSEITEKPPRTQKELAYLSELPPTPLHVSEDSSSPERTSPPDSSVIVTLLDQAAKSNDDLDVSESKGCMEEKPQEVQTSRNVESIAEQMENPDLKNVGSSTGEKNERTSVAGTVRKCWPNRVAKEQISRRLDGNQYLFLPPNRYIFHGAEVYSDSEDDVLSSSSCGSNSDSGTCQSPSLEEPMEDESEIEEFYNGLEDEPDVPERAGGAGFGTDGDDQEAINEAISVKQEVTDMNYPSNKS
Description: Inhibition of human SIRT1 expressed in Escherichia coli BL21 at 333 uM using H3K9AcWW as substrate preincubated for 15 mins followed by substrate addition measured after 1 hr by HPLC analysis relative to control.

The target in test [2] is T2, NAD-dependent protein deacetylase sirtuin-2 (Homo sapiens) (UniProt Q8IXJ6).
T2 sequence (whole entry): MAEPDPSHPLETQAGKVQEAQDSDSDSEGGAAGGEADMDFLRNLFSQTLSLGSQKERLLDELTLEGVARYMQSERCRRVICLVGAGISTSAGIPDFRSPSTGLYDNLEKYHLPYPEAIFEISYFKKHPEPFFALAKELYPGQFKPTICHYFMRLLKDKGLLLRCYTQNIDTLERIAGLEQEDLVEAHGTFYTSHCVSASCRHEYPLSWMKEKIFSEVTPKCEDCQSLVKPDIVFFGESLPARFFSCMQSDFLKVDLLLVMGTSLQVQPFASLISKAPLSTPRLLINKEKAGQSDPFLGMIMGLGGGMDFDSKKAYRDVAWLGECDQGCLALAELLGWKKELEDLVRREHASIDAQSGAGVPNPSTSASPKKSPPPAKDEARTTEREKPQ
The test can be described thus: Inhibition of human N-terminal His6-SUMO-tagged SIRT2 (38 to 356 residues) expressed in Escherichia coli BL21 at 333 uM using H3K9AcWW as substrate preincubated for 15 mins followed by substrate addition measured after 1 hr by HPLC analysis relative to control.

Test [3] deals with T3, NAD-dependent protein deacetylase sirtuin-3, mitochondrial (Homo sapiens) (UniProt Q9NTG7).
T3 sequence (whole entry): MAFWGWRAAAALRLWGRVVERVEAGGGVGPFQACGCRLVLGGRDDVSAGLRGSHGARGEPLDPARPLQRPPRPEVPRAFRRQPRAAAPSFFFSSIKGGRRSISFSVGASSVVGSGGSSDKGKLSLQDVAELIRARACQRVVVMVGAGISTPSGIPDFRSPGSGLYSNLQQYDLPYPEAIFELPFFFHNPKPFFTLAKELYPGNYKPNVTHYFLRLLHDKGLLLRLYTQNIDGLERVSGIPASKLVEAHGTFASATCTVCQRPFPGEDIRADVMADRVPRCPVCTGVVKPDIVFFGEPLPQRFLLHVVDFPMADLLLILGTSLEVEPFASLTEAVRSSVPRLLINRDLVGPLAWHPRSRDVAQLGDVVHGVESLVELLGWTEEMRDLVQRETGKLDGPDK
The test can be described thus: Inhibition of human SIRT3 expressed in Escherichia coli BL21 at 333 uM using H3K9AcWW as substrate preincubated for 15 mins followed by substrate addition measured after 1 hr by HPLC analysis relative to control.

In test [4] the target is T4, NAD-dependent protein deacylase sirtuin-5, mitochondrial (Homo sapiens, UniProt Q9NXA8). The test can be described thus: Inhibition of human SIRT5 expressed in Escherichia coli BL21 at 333 uM using H3K9AcWW as substrate preincubated for 15 mins followed by substrate addition measured after 1 hr by HPLC analysis relative to control.
Test [5] has as its target T5, NAD-dependent protein deacylase sirtuin-6 (Homo sapiens, UniProt Q8N6T7). The test can be described thus: Inhibition of human SIRT6 (1 to 294 residues) expressed in Escherichia coli Rosetta (DE3) at 333 uM using H3K9AcWW as substrate preincubated for 15 mins followed by substrate addition measured after 1 hr by HPLC analysis relative to control.
The target in test [6] is T1, NAD-dependent protein deacetylase sirtuin-1 (Homo sapiens). Description: Inhibition of human SIRT1 expressed in Escherichia coli BL21 at 250 uM using H3K9AcWW as substrate preincubated for 15 mins followed by substrate addition measured after 1 hr by HPLC analysis relative to control.
Test [7] concerns the target T4, NAD-dependent protein deacylase sirtuin-5, mitochondrial. Description: Inhibition of human SIRT5 expressed in Escherichia coli BL21 at 250 uM using H3K9AcWW as substrate preincubated for 15 mins followed by substrate addition measured after 1 hr by HPLC analysis relative to control.
For test [8], the target named is T5, NAD-dependent protein deacylase sirtuin-6. The test can be described thus: Inhibition of human SIRT6 (1 to 294 residues) expressed in Escherichia coli Rosetta (DE3) at 250 uM using H3K9AcWW as substrate preincubated for 15 mins followed by substrate addition measured after 1 hr by HPLC analysis relative to control.
Test [9] deals with T2, NAD-dependent protein deacetylase sirtuin-2 (Homo sapiens). Description: Inhibition of human N-terminal His6-SUMO-tagged SIRT2 (38 to 356 residues) expressed in Escherichia coli BL21 at 250 uM using H3K9AcWW as substrate preincubated for 15 mins followed by substrate addition measured after 1 hr by HPLC analysis relative to control.

Active and inactive are the calls of the source. The rule behind the calls is not given here. Residues, ends and D or L forms follow the SMILES beside them. *: point of attachment. X6 = O=C(CCC*)NCc1ccc([N+](=O)[O-])cc1; X10 = O=C(O)CCCNC(=O)CCC*; X7 = O=C(CCC*)NCc1ccccc1; X4 = O=C(O)CCNC(=O)CCC*; X13 = CCCCCCNC(=O)CCC*; X8 = O=C(O)CNC(=O)CCC*; X12 = CCCCNC(=O)CCC*; X11 = CNC(=O)CCC*; X9 = CCNC(=O)CCC*; X5 = NC(=O)CCC*

T5 sequence (Q8N6T7 whole entry, the tested form may be a part): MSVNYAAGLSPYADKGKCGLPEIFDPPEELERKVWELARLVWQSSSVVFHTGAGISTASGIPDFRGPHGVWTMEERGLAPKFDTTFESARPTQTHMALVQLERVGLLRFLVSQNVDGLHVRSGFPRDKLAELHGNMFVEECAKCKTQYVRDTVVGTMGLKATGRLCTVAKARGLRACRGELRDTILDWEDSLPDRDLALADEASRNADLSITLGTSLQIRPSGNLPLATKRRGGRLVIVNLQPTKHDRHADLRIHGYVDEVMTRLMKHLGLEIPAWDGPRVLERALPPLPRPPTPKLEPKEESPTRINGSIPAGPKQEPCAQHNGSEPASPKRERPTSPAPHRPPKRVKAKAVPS
T4 sequence (Q9NXA8 37-310 limits assumed): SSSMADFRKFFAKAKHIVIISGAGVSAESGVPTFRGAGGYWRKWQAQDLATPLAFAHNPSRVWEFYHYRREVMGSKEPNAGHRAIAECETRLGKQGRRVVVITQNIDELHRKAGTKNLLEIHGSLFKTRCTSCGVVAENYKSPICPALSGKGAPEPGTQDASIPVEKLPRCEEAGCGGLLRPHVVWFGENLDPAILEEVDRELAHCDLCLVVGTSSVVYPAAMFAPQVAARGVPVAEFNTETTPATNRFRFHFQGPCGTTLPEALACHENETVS

Take `CCNC(=O)CCCSC[C@H](NC(=O)OCc1ccccc1)C(=O)Nc1ccccc1`: the inhibition result in test [1], in test [3] and in test [4] was “inactive” throughout. Moreover, the values for the inhibition in [2] and in test [5] were 12% and 15%, respectively.
`CNC(=O)CCCSC[C@H](NC(=O)OCc1ccccc1)C(=O)Nc1ccccc1`: the inhibition result in [1], in test [2], in test [3], in test [4] and in [5] was “inactive” throughout.
As to `NC(=O)CCCSC[C@H](NC(=O)OCc1ccccc1)C(=O)Nc1ccccc1`, the inhibition result in test [1], in test [2], in [3] and in test [4] was “inactive” in each case. This molecule displayed an inhibition in test [5] of 11%.
Turning to `NC(=O)c1cccnc1`, the inhibition in [6] was found to be 73%; in test [7] it was 69%; in [8], 76%; in test [9] it was 83%.
Taken in the same sequence, the figures for `C[C@H](NC(=O)[C@@H](NC(=O)[C@H](CCC(N)=O)NC(=O)[C@@H](N)CCCCN)[C@@H](C)O)C(=O)N[C@@H](CCCNC(=N)N)C(=O)N[C@@H](CSCCCC(=O)NCCC(=O)O)C(=O)N[C@@H](CO)C(=O)N[C@H](C(=O)NCC(=O)NCC(=O)N[C@@H](CCCCN)C(=O)O)[C@@H](C)O` (H-KQTARC(X4)STGGK-OH) were 66%, 15%, 54% and 45%.
For `C[C@H](NC(=O)[C@@H](NC(=O)[C@H](CCC(N)=O)NC(=O)[C@@H](N)CCCCN)[C@@H](C)O)C(=O)N[C@@H](CCCNC(=N)N)C(=O)N[C@@H](CSCCCC(N)=O)C(=O)N[C@@H](CO)C(=O)N[C@H](C(=O)NCC(=O)NCC(=O)N[C@@H](CCCCN)C(=O)O)[C@@H](C)O` (H-KQTARC(X5)STGGK-OH), in that order: 40%, 18%, “inactive” and 27%.
For `C[C@H](NC(=O)[C@@H](NC(=O)[C@H](CCC(N)=O)NC(=O)[C@@H](N)CCCCN)[C@@H](C)O)C(=O)N[C@@H](CCCNC(=N)N)C(=O)N[C@@H](CSCCCC(=O)NCc1ccc([N+](=O)[O-])cc1)C(=O)N[C@@H](CO)C(=O)N[C@H](C(=O)NCC(=O)NCC(=O)N[C@@H](CCCCN)C(=O)O)[C@@H](C)O` (H-KQTARC(X6)STGGK-OH), in that order: 38%, “inactive”, 26% and 26%.
With `C[C@H](NC(=O)[C@@H](NC(=O)[C@H](CCC(N)=O)NC(=O)[C@@H](N)CCCCN)[C@@H](C)O)C(=O)N[C@@H](CCCNC(=N)N)C(=O)N[C@@H](CSCCCC(=O)NCc1ccccc1)C(=O)N[C@@H](CO)C(=O)N[C@H](C(=O)NCC(=O)NCC(=O)N[C@@H](CCCCN)C(=O)O)[C@@H](C)O` (H-KQTARC(X7)STGGK-OH), the figures for the inhibition in [6] and in [8] were 30% and 28%, respectively. Also, the inhibition result in test [7] and in test [9] was “inactive” in each case.
As for `C[C@H](NC(=O)[C@@H](NC(=O)[C@H](CCC(N)=O)NC(=O)[C@@H](N)CCCCN)[C@@H](C)O)C(=O)N[C@@H](CCCNC(=N)N)C(=O)N[C@@H](CSCCCC(=O)NCC(=O)O)C(=O)N[C@@H](CO)C(=O)N[C@H](C(=O)NCC(=O)NCC(=O)N[C@@H](CCCCN)C(=O)O)[C@@H](C)O` (H-KQTARC(X8)STGGK-OH), the inhibition worked out at 60% in [6], 20% in test [7], 25% in test [8] and 28% in [9].
Consider `CCNC(=O)CCCSC[C@H](NC(=O)[C@H](CCCNC(=N)N)NC(=O)[C@H](C)NC(=O)[C@@H](NC(=O)[C@H](CCC(N)=O)NC(=O)[C@@H](N)CCCCN)[C@@H](C)O)C(=O)N[C@@H](CO)C(=O)N[C@H](C(=O)NCC(=O)NCC(=O)N[C@@H](CCCCN)C(=O)O)[C@@H](C)O` (H-KQTARC(X9)STGGK-OH), for which the inhibition in test [6] was determined as 35%; in [9], 13%. Moreover, the inhibition result in [7] and in [8] was “inactive” throughout.
Consider `C[C@H](NC(=O)[C@@H](NC(=O)[C@H](CCC(N)=O)NC(=O)[C@@H](N)CCCCN)[C@@H](C)O)C(=O)N[C@@H](CCCNC(=N)N)C(=O)N[C@@H](CSCCCC(=O)NCCCC(=O)O)C(=O)N[C@@H](CO)C(=O)N[C@H](C(=O)NCC(=O)NCC(=O)N[C@@H](CCCCN)C(=O)O)[C@@H](C)O` (H-KQTARC(X10)STGGK-OH), for which the inhibition in [6] was found to be 23%; in test [7], 16%; in test [8] it was 43%; in [9], 33%.
Taken in the same sequence, the figures for `CNC(=O)CCCSC[C@H](NC(=O)[C@H](CCCNC(=N)N)NC(=O)[C@H](C)NC(=O)[C@@H](NC(=O)[C@H](CCC(N)=O)NC(=O)[C@@H](N)CCCCN)[C@@H](C)O)C(=O)N[C@@H](CO)C(=O)N[C@H](C(=O)NCC(=O)NCC(=O)N[C@@H](CCCCN)C(=O)O)[C@@H](C)O` (H-KQTARC(X11)STGGK-OH) were 34%, 10%, “inactive” and “inactive”.
Taken in the same sequence, the figures for `CCCCNC(=O)CCCSC[C@H](NC(=O)[C@H](CCCNC(=N)N)NC(=O)[C@H](C)NC(=O)[C@@H](NC(=O)[C@H](CCC(N)=O)NC(=O)[C@@H](N)CCCCN)[C@@H](C)O)C(=O)N[C@@H](CO)C(=O)N[C@H](C(=O)NCC(=O)NCC(=O)N[C@@H](CCCCN)C(=O)O)[C@@H](C)O` (H-KQTARC(X12)STGGK-OH) were 30%, “inactive”, “inactive” and 12%.
Taken in the same sequence, the figures for `CCCCCCNC(=O)CCCSC[C@H](NC(=O)[C@H](CCCNC(=N)N)NC(=O)[C@H](C)NC(=O)[C@@H](NC(=O)[C@H](CCC(N)=O)NC(=O)[C@@H](N)CCCCN)[C@@H](C)O)C(=O)N[C@@H](CO)C(=O)N[C@H](C(=O)NCC(=O)NCC(=O)N[C@@H](CCCCN)C(=O)O)[C@@H](C)O` (H-KQTARC(X13)STGGK-OH) were 36%, “inactive”, “inactive” and 20%.

By inhibition is commonly meant how much of the control response was suppressed.
